This is an account of results in patent US20240009272A1, “METHODS, SYSTEMS, AND COMPOSITIONS FOR LEGUME-BASED PRODUCTION OF THERAPEUTIC PROTEINS AND THERAPEUTIC MEDICAL MATERIALS” (Arizona Board of Regents on Behalf of The University of …, priority 2017, published 2024).

This assay can be described thus: Stability of rhEGF in soymilk, read out by bioactivity on Hela cell EGFR. The format is physicochemical. As to conditions: in soymilk over 24 hours; Hela cell EGFR abundance. On the procedure: Hela cells (obtained from American Tissue Culture Collection) were cultured in Minimum Essential Media (MEM) complemented with 10% Fetal Bovine Serum (FBS), 100 units/ml penicillin, and 100 μg/ml streptomycin. For the western blotting assay, cells grown in a 6-well plate were kept in serum-free MEM media for 24 hours. Cells were then either kept in a serum-free medium (control) or stimulated with soy milk alone, soy EGF, or commercial recombinant human EGF for different time periods as indicated. Cells were lysed by directly adding 1×SDS sample buffer (50 mM Tris-HCl, pH 6.8, 10% glycerol, 2% SDS, and 5% β-ME) to the cells after washing 3 times with 1×PBS. EGF bio-activity was determined via EGFR phosphorylation and downstream AKT phosphorylation. Total EGFR was also measured since EGFR is known to undergo internalization when stimulated with EGF. Antibodies used in western blot are anti-p-EGFR (Tyr1068) (#2234, Cell Signaling Technology), anti-total EGFR (#06-847, Millipore), anti-p-AKT (#4060, Cell Signaling Technology) and anti-Lamin B1 (#13435, Cell Signaling Technology). […] EGFR was labeled using an anti-EGFR antibody (#4267, Cell Signaling Technology) and detected with Alexa Fluor 594 Goat anti-rabbit IgG (#A11012, Life Technologies). […]

On to “rhEGF: commercial recombinant human EGF (Gibco, Life Technologies), used as positive control”, for which the “bioactivity of rhEGF kept in soymilk versus control rhEGF” value is “same bioactivity as control recombinant rhEGF”.
